system: HBV viral production from HepAD38 cells; experiment: Activity of test compounds on viral production from HepAD38 cells (viral load by qPCR of HBV core sequence in supernatant); assay type: cell-based; settings: Hepatitis B virus, 120 h, 5 days incubation, HBV DNA in supernatant by qPCR, top concentration 10 μM, read-out: Viral Load EC50 Activity range
Method in brief: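 EC50 and CC50 come from four-parameter fits of supernatant viral load and CellTiter-Glo viability, respectively. Viral load was measured by core-region TaqMan qPCR against HBV DNA standards and compared with DMSO controls. Tet-free HepAD38 cells (50,000/well, 2% FBS) were exposed to compound, highest 10 μM, for 5 days at 37° C.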

| SMILES | EC50 [µM] |
| --- | --- |
| [2H]C1[C@]([2H])(C(=O)Nc2ccc(F)c(Cl)c2)N(C)S(=O)(=O)N[C@]1([2H])c1ncc(-c2cn(C([2H])([2H])[2H])cn2)s1 (stereo in doubt) [HBV-CSU-341-ISO-II, Cis-N-(3-Chloro-4-fluorophenyl)-2-methyl-5-(5-(1-(methyl-d3)-1H-imidazol-4-yl)thiazol-2-yl)-1,2,6-thiadiazinane-3,4,5-d3-3-carboxamide 1,1-dioxide] | 1 to 5 |
| O=C(Nc1ccc(F)c(Cl)c1)[C@@H]1C[C@H](c2nccs2)NS(=O)(=O)N1CCOCc1ccccc1 [HBV-CSU-095-ISO-II, Cis-2-(2-(benzyloxy)ethyl)-N-(3-chloro-4-fluorophenyl)-5-(thiazol-2-yl)-1,2,6-thiadiazinane-3-carboxamide 1,1-dioxide] | 1 to 5 |
| [2H]C([2H])([2H])N1[C@H](C(=O)Nc2ccc(F)c(Cl)c2)C[C@H](c2ncc(-c3cn(C)cn3)s2)NS1(=O)=O [HBV-CSU-338-ISO-I, Cis-N-(3-Chloro-4-fluorophenyl)-2-(methyl-d3)-5-(5-(1-methyl-1H-imidazol-4-yl)thiazol-2-yl)-1,2,6-thiadiazinane-3-carboxamide 1,1-dioxide] | < 1 |
| CN1[C@H](C(=O)Nc2ccc(F)c(Cl)c2)C[C@H](c2ccc(-c3ccc(C(F)(F)F)nc3)s2)NS1(=O)=O [HBV-CSU-158-ISO-I, Cis-N-(3-chloro-4-fluorophenyl)-2-methyl-5-(5-(6-(trifluoromethyl)pyridin-3-yl)thiophen-2-yl)-1,2,6-thiadiazinane-3-carboxamide 1,1-dioxide] | < 1 |
| CN1C(C(=O)Nc2ccc(F)c(Cl)c2)CC(c2cc(-c3ncn(C)n3)cs2)NS1(=O)=O (racemic) [HBV-CSU-326, Cis-N-(3-chloro-4-fluorophenyl)-2-methyl-5-(4-(1-methyl-1H-1,2,4-triazol-3-yl)thiophen-2-yl)-1,2,6-thiadiazinane-3-carboxamide 1,1-dioxide] | < 1 |
| CN1C(C(=O)Nc2ccc(F)c(Br)c2)CC(c2cccs2)NS1(=O)=O (racemic) [HBV-CSU-016, Cis-N-(3-Bromo-4-fluorophenyl)-2-methyl-5-(thiophen-2-yl)-1,2,6-thiadiazinane-3-carboxamide 1,1-dioxide] | < 1 |
| [2H]C1[C@]([2H])(C(=O)Nc2ccc(F)c(Cl)c2)N(C)S(=O)(=O)N[C@]1([2H])c1ccc(-c2cn(C)cn2)s1 (stereo in doubt) [HBV-CSU-375-ISO-II, Cis-N-(3-Chloro-4-fluorophenyl)-2-methyl-5-(5-(1-methyl-1H-imidazol-4-yl)thiophen-2-yl)-1,2,6-thiadiazinane-3,4,5-d3-3-carboxamide 1,1-dioxide] | 1 to 5 |
| CN1[C@H](C(=O)Nc2ccc(F)c(Cl)c2)C[C@H](c2cc(-c3cccnc3)cs2)NS1(=O)=O [HBV-CSU-167-ISO-I, Cis-N-(3-chloro-4-fluorophenyl)-2-methyl-5-(4-(pyridin-3-yl)thiophen-2-yl)-1,2,6-thiadiazinane-3-carboxamide 1,1-dioxide] | < 1 |
| CN1[C@@H](C(=O)Nc2ccc(F)c(Cl)c2)C[C@@H](c2ccccn2)NS1(=O)=O [HBV-CSU-031-ISO-II, Cis-N-(3-Chloro-4-fluorophenyl)-2-methyl-5-(pyridin-2-yl)-1,2,6-thiadiazinane-3-carboxamide 1,1-dioxide] | > 5 |
| COCCN1C(C(=O)Nc2ccc(F)c(Cl)c2)CC(c2nccs2)NS1(=O)=O (racemic) [HBV-CSU-058, Cis-N-(3-chloro-4-fluorophenyl)-2-(2-methoxyethyl)-5-(thiazol-2-yl)-1,2,6-thiadiazinane-3-carboxamide 1,1-dioxide] | < 1 |
| [2H]C1[C@]([2H])(C(=O)Nc2ccc(F)c(Cl)c2)N(C)S(=O)(=O)N[C@]1([2H])c1ccc(Br)s1 (stereo in doubt) [HBV-CSU-371-ISO-II, Cis-5-(5-Bromothiophen-2-yl)-N-(3-chloro-4-fluorophenyl)-2-methyl-1,2,6-thiadiazinane-3,4,5-d3-3-carboxamide 1,1-dioxide] | 1 to 5 |
| O=C(Nc1ccc(F)c(Cl)c1)[C@H]1C[C@@H](c2nccs2)NS(=O)(=O)N1CCc1c[nH]nn1 [HBV-CSU-092-ISO-II, Cis-2-(2-(1H-1,2,3-Triazol-4-yl)ethyl)-N-(3-chloro-4-fluorophenyl)-5-(thiazol-2-yl)-1,2,6-thiadiazinane-3-carboxamide 1,1-dioxide] | > 5 |
| [2H]C1[C@]([2H])(C(=O)Nc2ccc(F)c(Cl)c2)N(C([2H])([2H])[2H])S(=O)(=O)N[C@]1([2H])c1ccc(-c2cnn(C([2H])([2H])[2H])c2)s1 (stereo in doubt) [HBV-CSU-379-ISO-II, Cis-N-(3-Chloro-4-fluorophenyl)-2-(methyl-d3)-5-(5-(1-(methyl-d3)-1H-pyrazol-4-yl)thiophen-2-yl)-1,2,6-thiadiazinane-3,4,5-d3-3-carboxamide 1,1-dioxide] | < 1 |
| CN1[C@H](C(=O)Nc2ccc(F)c(Cl)c2)C[C@H](c2ncc(-c3cnn(C)c3)s2)NS1(=O)=O [HBV-CSU-177-ISO-I, Cis-N-(3-Chloro-4-fluorophenyl)-2-methyl-5-(5-(1-methyl-1H-pyrazol-4-yl)thiazol-2-yl)-1,2,6-thiadiazinane-3-carboxamide 1,1-dioxide] | < 1 |
| Cc1nn(C)cc1-c1ccc([C@H]2C[C@@H](C(=O)Nc3ccc(F)c(Cl)c3)N(C)S(=O)(=O)N2)s1 [HBV-CSU-313-ISO-I, Cis-N-(3-chloro-4-fluorophenyl)-5-(5-(1,3-dimethyl-1H-pyrazol-4-yl)thiophen-2-yl)-2-methyl-1,2,6-thiadiazinane-3-carboxamide 1,1-dioxide] | < 1 |
| CN1[C@H](C(=O)Nc2ccc(F)c(Cl)c2)C[C@H](c2ccc(-c3ccn(C)n3)s2)NS1(=O)=O [HBV-CSU-270-ISO-I, Cis-N-(3-Chloro-4-fluorophenyl)-2-methyl-5-(5-(1-methyl-1H-pyrazol-3-yl)thiophen-2-yl)-1,2,6-thiadiazinane-3-carboxamide 1,1-dioxide] | < 1 |
| CN1[C@H](C(=O)Nc2ccc(F)c(Cl)c2)C[C@H](c2ccc(-c3cncnc3)s2)NS1(=O)=O [HBV-CSU-272-ISO-I, Cis-N-(3-chloro-4-fluorophenyl)-2-methyl-5-(5-(pyrimidin-5-yl)thiophen-2-yl)-1,2,6-thiadiazinane-3-carboxamide 1,1-dioxide] | < 1 |
| COCCN1C(c2cccs2)CC(C(=O)Nc2ccc(F)c(Cl)c2)N(C)S1(=O)=O (stereo not drawn) [HBV-CSU-064, Cis-N-(3-Chloro-4-fluorophenyl)-6-(2-methoxyethyl)-2-methyl-5-(thiophen-2-yl)-1,2,6-thiadiazinane-3-carboxamide 1,1-dioxide] | > 5 |
| CS(=O)(=O)CCN1C(C(=O)Nc2ccc(F)c(Cl)c2)CC(c2nccs2)NS1(=O)=O (racemic) [HBV-CSU-073, Cis-N-(3-Chloro-4-fluorophenyl)-2-(2-(methylsulfonyl)ethyl)-5-(thiazol-2-yl)-1,2,6-thiadiazinane-3-carboxamide 1,1-dioxide] | > 5 |
| [2H]C([2H])([2H])N1[C@H](C(=O)Nc2ccc(F)c(Cl)c2)C[C@H](c2ncc(Br)s2)NS1(=O)=O [HBV-CSU-336-ISO-I, 5-(5-Bromothiazol-2-yl)-N-(3-chloro-4-fluorophenyl)-2-(methyl-d3)-1,2,6-thiadiazinane-3-carboxamide 1,1-dioxide] | < 1 |
| CN1[C@@H](C(=O)Nc2ccc(F)c(Cl)c2)C[C@@H](c2ccnn2C)NS1(=O)=O [HBV-CSU-054-ISO-I, Cis-N-(3-Chloro-4-fluorophenyl)-2-methyl-5-(1-methyl-1H-pyrazol-5-yl)-1,2,6-thiadiazinane-3-carboxamide 1,1-dioxide] | > 5 |
| [2H]C([2H])([2H])N1C(C(=O)Nc2ccc(F)c(Cl)c2)CC(c2ccc(-c3cn(C)cn3)s2)NS1(=O)=O (stereo not shown) [HBV-CSU-373] | < 1 |
| CN1[C@@H](C(=O)Nc2ccc(F)c(Cl)c2)C[C@@H](c2ccc(-c3ccc(F)cn3)s2)NS1(=O)=O [HBV-CSU-242-ISO-II, Cis-N-(3-chloro-4-fluorophenyl)-5-(5-(5-fluoropyridin-2-yl)thiophen-2-yl)-2-methyl-1,2,6-thiadiazinane-3-carboxamide 1,1-dioxide] | > 5 |
| CN1C(C(=O)Nc2cccc(C#N)c2)CC(c2cccs2)NS1(=O)=O (racemic) [HBV-CSU-020, Cis-N-(3-cyanophenyl)-2-methyl-5-(thiophen-2-yl)-1,2,6-thiadiazinane-3-carboxamide 1,1-dioxide] | < 1 |
| CN1[C@@H](C(=O)Nc2ccc(F)c(Cl)c2)C[C@@H](c2ccc(F)cc2)NS1(=O)=O [HBV-CSU-112-ISO-II, Cis-N-(3-Chloro-4-fluorophenyl)-5-(4-fluorophenyl)-2-methyl-1,2,6-thiadiazinane-3-carboxamide 1,1-dioxide] | > 5 |
| O=C(Nc1ccc(F)c(Cl)c1)C1CC(c2nccs2)NS(=O)(=O)N1CCCN1CCOCC1 (stereo not drawn) [HBV-CSU-103, Cis-N-(3-Chloro-4-fluorophenyl)-2-(3-morpholinopropyl)-5-(thiazol-2-yl)-1,2,6-thiadiazinane-3-carboxamide 1,1-dioxide] | > 5 |
| C#CCN1[C@@H](C(=O)Nc2ccc(F)c(Cl)c2)C[C@@H](c2nccs2)NS1(=O)=O [HBV-CSU-089-ISO-II, Cis-N-(3-chloro-4-fluorophenyl)-2-(prop-2-yn-1-yl)-5-(thiazol-2-yl)-1,2,6-thiadiazinane-3-carboxamide 1,1-dioxide] | > 5 |
| CN1[C@H](C(=O)Nc2ccc(F)c(Cl)c2)C[C@H](c2cc(-c3cnn(C)c3)cs2)NS1(=O)=O [HBV-CSU-169-ISO-I, Cis-N-(3-chloro-4-fluorophenyl)-2-methyl-5-(4-(1-methyl-1H-pyrazol-4-yl)thiophen-2-yl)-1,2,6-thiadiazinane-3-carboxamide 1,1-dioxide] | < 1 |

From patent publication US11078170B2 (Assembly Biosciences, Inc., priority 2017, dated 2021)
